Values quoted from earlier work as cited in patent US20080160594A1, “Methods of Light Activated Release of Ligands from Endosomes” (INVITROGEN CORPORATION, priority 2001, published 2008).

Details: Vlassov et al., 1994

CCCCCCCC/C=C\CCCCCCCCOCC(C[N+](C)(C)C)OCCCCCCCC/C=C\CCCCCCCC.[Cl-] (stereo not shown) [DOTMA, N-(1-(2,3-dioleyloxy)propyl)-N,N,N-trimethylammonium chloride]
increase of the antisense effect of a phosphorothioate oligonucleotide: 1000 fold
